Measured values published in patent US9707242B2, “Use of 25-hydroxyvitamin D3 to enhance executive functions” (DSM IP ASSETS B.V., priority 2013, dated 2017).

Legend:
healthy adults under 65 = tested on: healthy adults under 65; set-up: species or system human; details: in vivo
Description: The design is a parallel group, randomized, placebo-controlled, double-blind study similar to that of Example 2, above, except that the participants are healthy adults under 65. The duration of supplementation is 6 months (180 days). Group size is chosen so that a statistically significant difference, if present, may be observed between placebo and test groups.
Participants are randomly allocated to either the 25-OH D3 group, Vitamin D3 group, (Vitamin D3+25-OH D3) group or placebo group. Double-blind randomization is carried out by means of a label code associated with a specific participant ID number, whose meaning is known only to the supplier. Participants are allocated randomly to these numbers.
For baseline (Day 0) the following tests are performed: Physical examination, vital signs (blood pressure, heart rate), demographics, clinical laboratory, FFQ, serum: 25-OH D3, 24,25(OH)2D, 1,25(OH)2D3, Vitamin D3, calcium, albumin, creatinine, fasting glucose, PTH; urine: calcium, creatinine; executive function tests (see below). […]
Executive functioning test batteries include the following standard tests of executive functioning: Trail Making Tests A and B (to determine the ratio of TMT-B/TMT-A), Stroop Colour-Word Test, including determining the Stroop ratio, calculated by Stroop card 3/((Stroop card 1+Stroop card 2)/2) and animal fluency test. […]

frail elderly = test: Example 2: double-blind, randomized, placebo-controlled trial in the frail elderly; type: in vivo, human
Description: The design is a parallel group, randomized, placebo-controlled, double-blind study with three different application groups. Each group has an appropriate number of participants (e.g., 20 participants). Eligibility is defined as being 65 years or older and being frail or pre-frail. Frailty is defined as having unintentional weight loss, weakness, self-reported exhaustion, slow walking speed, and/or low physical activity (see Fried L P, et al. Frailty in older adults: evidence for a phenotype. J Gerontol A Biol Sci Med Sci. […] A participant is classified as pre-frail when one or two of the aforementioned criteria are met, while frail is classified when three or more criteria are present. […] The duration of supplementation is 6 months (180 days). […] Double-blind randomization is carried out by means of a label code associated with a specific participant ID number, whose meaning is known only to the supplier. Participants are allocated randomly to these numbers. […] For baseline (Day 0) the following tests are performed: […] […] Executive functioning test batteries include the following standard tests of executive functioning: Trail Making Tests A and B (to determine the ratio of TMT-B/TMT-A), Stroop Colour-Word Test, including determining the Stroop ratio, calculated by Stroop card 3/((Stroop card 1+Stroop card 2)/2) and animal fluency test. […]

`C=C1CC[C@H](O)C/C1=C/C=C1\CCC[C@]2(C)[C@@H]([C@H](C)CCCC(C)(C)O)CC[C@@H]12` [25(OH)D, 25-hydroxyvitamin D3] was tested, and the “25-OH D serum level” value (healthy adults under 65) was “significantly increases”, the “improvement of executive functioning” value (frail elderly; frail elderly, 6 months, in comparison to Vitamin D3 and placebo) was “significantly higher effect” and the “25-OH D3 serum level” value (frail elderly; in vivo) was “significantly increases”.
